The test deals with integrin αvβ3 (Homo sapiens, UniProt P05106+P06756). Put plainly: Competitive cell-binding assay with ^125I-echistatin on U87MG cells. The note with it: SD.

As a reminder, the IC50 is the concentration that gives 50% inhibition. A low value points to greater potency in that assay. `CC(F)C(=O)NC[C@@H]1O[C@H](C(=O)NCCCC[C@@H]2NC(=O)[C@@H](Cc3ccccc3)NC(=O)[C@H](CC(=O)O)NC(=O)CNC(=O)[C@H](CCCNC(=N)N)NC2=O)[C@H](O)[C@H](O)[C@H]1O` (stereo partly shown) [galacto-RGD, FP-SAA-c(RGDfK)] gave an IC50 of 404 ± 38 nM.

For the origin of these results see article PMC2999579 (Molecular imaging and biology : MIB : the official …, 2009).
